Data taken from the supplement of paper PMC11451515.

Test system: SEM cells
Assay: cell viability relative to DMSO control; higher = less cytotoxic
Details: 48 h
In short: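 Library compounds in DMSO were pin-dosed in an 11-point threefold series (47 μM to 0.79 nM) onto leukemia cells in 1536-well plates (5 μl). Plates held 500 cells/well of NOMO1 or SEM or 1000 cells/well of P12-Ichikawa, each adapted for at least four passages in each medium. Luminescence was read with CellTiter-Glo One after 48 h at 37°C. Viability means the per-plate percentage relative to DMSO wells, using cell-free wells as background.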

[1] = HPLM + 10% dialyzed FBS, 0.000781 µM
[2] = HPLM + 10% dialyzed FBS, 0.00234 µM
[3] = HPLM + 10% dialyzed FBS, 0.00702 µM
[4] = HPLM + 10% dialyzed FBS, 0.0211 µM
[5] = HPLM + 10% dialyzed FBS, 0.0632 µM
[6] = HPLM + 10% dialyzed FBS, 0.19 µM
[7] = HPLM + 10% dialyzed FBS, 0.569 µM
[8] = HPLM + 10% dialyzed FBS, 1.71 µM
[9] = HPLM + 10% dialyzed FBS, 5.12 µM
[10] = HPLM + 10% dialyzed FBS, 15.4 µM
[11] = HPLM + 10% dialyzed FBS, 46.1 µM
[12] = RPMI 5 mM glucose + 10% dialyzed FBS, 0.000781 µM
[13] = RPMI 5 mM glucose + 10% dialyzed FBS, 0.00234 µM
[14] = RPMI 5 mM glucose + 10% dialyzed FBS, 0.00702 µM
[15] = RPMI 5 mM glucose + 10% dialyzed FBS, 0.0211 µM
[16] = RPMI 5 mM glucose + 10% dialyzed FBS, 0.0632 µM
[17] = RPMI 5 mM glucose + 10% dialyzed FBS, 0.19 µM
[18] = RPMI 5 mM glucose + 10% dialyzed FBS, 0.569 µM
[19] = RPMI 5 mM glucose + 10% dialyzed FBS, 1.71 µM
[20] = RPMI 5 mM glucose + 10% dialyzed FBS, 5.12 µM
[21] = RPMI 5 mM glucose + 10% dialyzed FBS, 15.4 µM
[22] = RPMI 5 mM glucose + 10% dialyzed FBS, 46.1 µM
[23] = RPMI 5 mM glucose + 10% FBS, 0.000781 µM
[24] = RPMI 5 mM glucose + 10% FBS, 0.00234 µM
[25] = RPMI 5 mM glucose + 10% FBS, 0.00702 µM
[26] = RPMI 5 mM glucose + 10% FBS, 0.0211 µM
[27] = RPMI 5 mM glucose + 10% FBS, 0.0632 µM
[28] = RPMI 5 mM glucose + 10% FBS, 0.19 µM
[29] = RPMI 5 mM glucose + 10% FBS, 0.569 µM
[30] = RPMI 5 mM glucose + 10% FBS, 1.71 µM
[31] = RPMI 5 mM glucose + 10% FBS, 5.12 µM
[32] = RPMI 5 mM glucose + 10% FBS, 15.4 µM
[33] = RPMI 5 mM glucose + 10% FBS, 46.1 µM

Compound | cell viability [1] [%] | cell viability [2] [%] | cell viability [3] [%] | cell viability [4] [%] | cell viability [5] [%] | cell viability [6] [%] | cell viability [7] [%] | cell viability [8] [%] | cell viability [9] [%] | cell viability [10] [%] | cell viability [11] [%] | cell viability [12] [%] | cell viability [13] [%] | cell viability [14] [%] | cell viability [15] [%] | cell viability [16] [%] | cell viability [17] [%] | cell viability [18] [%] | cell viability [19] [%] | cell viability [20] [%] | cell viability [21] [%] | cell viability [22] [%] | cell viability [23] [%] | cell viability [24] [%] | cell viability [25] [%] | cell viability [26] [%] | cell viability [27] [%] | cell viability [28] [%] | cell viability [29] [%] | cell viability [30] [%] | cell viability [31] [%] | cell viability [32] [%] | cell viability [33] [%]
COc1cc2nc(N3CCN(C(=O)C4CCCO4)CC3)nc(N)c2cc1OC (stereo not drawn) | 74.1 | 117 | 97 | 118 | 109 | 117 | 122 | 114 | 116 | 119 | 113 | 84.6 | 125 | 110 | 124 | 134 | 142 | 27.4 | 134 | 162 | 148 | 128 | – | – | – | – | – | – | – | – | – | – | –
CCN(CC)CCCCNc1ncc2c(n1)N(C)C(=O)N(c1c(Cl)c(OC)cc(OC)c1Cl)C2 | 99.2 | 110 | 110 | 111 | 119 | 111 | 117 | 114 | 99.2 | 48.3 | 11.9 | 125 | 118 | 107 | 114 | 116 | 116 | 129 | 104 | 101 | 52.3 | 16.9 | 109 | 112 | 117 | 125 | 119 | 106 | 126 | 109 | 104 | 44.4 | 13.2
C[S+](=O)([O-])c1ccc(C(=O)Nc2ccc(Cl)c(-c3ccccn3)c2)c(Cl)c1 | 97.9 | 98.7 | 129 | 116 | 126 | 127 | 131 | 122 | 140 | 126 | 144 | 104 | 98.5 | 136 | 120 | 131 | 111 | 138 | 142 | 127 | 140 | 134 | 100 | 117 | 129 | 123 | 126 | 150 | 121 | 122 | 153 | 25.2 | 139
